From patent US10485235B2, “Aryloxypyrimidinyl ethers as herbicides” (FMC Corporation, priority 2015, dated 2019)

Assays:
Assay type in all cases: in vivo
[1] = tested on: pigweed (Amaranthus retroflexus); assay: Test A preemergence, pigweed; conditions: Preemergence, 0 to 100 scale (0 no effect, 100 complete control)
Procedure, shortened: (§1)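 Approximately 10-day greenhouse assay. Formulated chemical (non-phytotoxic solvent plus surfactant) applied preemergence to soil over seeds or postemergence to plants of 2 to 10 cm. Endpoint: visual percent control, 0–100.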

rice (Oryza sativa) = assay: Test B flooded paddy test, rice; conditions: 250 g ai/ha, Flood; visual rating after 13 to 15 days; scale 0 to 100, 0 is no effect, 100 is complete control
Procedure, shortened: (§2)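 Seedlings at the 2-leaf stage are flooded to 3 cm and treated via the paddy water. Greenhouse plants are compared with controls after 13 to 15 days and given a 0 (no effect) to 100 (complete control) rating.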

[2] = tested on: barnyardgrass (Echinochloa crus-galli); assay: Test A preemergence, barnyardgrass; conditions: Preemergence, 0 to 100 scale (0 no effect, 100 complete control)
Procedure, shortened: as §1

[3] = tested on: galium (catchweed bedstraw, Galium aparine); assay: Test A postemergence, galium
Procedure, shortened: as §1

[4] = tested on: ragweed (common ragweed, Ambrosia elatior); assay: Test A preemergence, ragweed; conditions: Preemergence, 0 to 100 scale (0 no effect, 100 complete control)
Procedure, shortened: as §1

[5] = tested on: ryegrass, Italian (Italian ryegrass, Lolium multiflorum); assay: Test A preemergence, Italian ryegrass; conditions: Preemergence, 0 to 100 scale (0 no effect, 100 complete control)
Procedure, shortened: as §1

[6] = tested on: foxtail, giant (giant foxtail, Setaria faberii); assay: Test A postemergence, giant foxtail
Procedure, shortened: as §1

kochia (Kochia scoparia) [7] = assay: Test A postemergence, kochia
Procedure, shortened: as §1

[8] = tested on: pigweed (Amaranthus retroflexus); assay: Test A postemergence, pigweed
Procedure, shortened: as §1

corn (Zea mays) = assay: Test A postemergence, corn
Procedure, shortened: as §1

[9] = tested on: barnyardgrass (Echinochloa crus-galli); assay: Test A postemergence, barnyardgrass
Procedure, shortened: as §1

[10] = tested on: sedge, umbrella (small-flower umbrella sedge, Cyperus difformis); assay: Test B flooded paddy test, umbrella sedge; conditions: 250 g ai/ha, Flood; visual rating after 13 to 15 days; scale 0 to 100, 0 is no effect, 100 is complete control
Procedure, shortened: as §2

[11] = tested on: ducksalad (Heteranthera limosa); assay: Test B flooded paddy test, ducksalad; conditions: 250 g ai/ha, Flood; visual rating after 13 to 15 days; scale 0 to 100, 0 is no effect, 100 is complete control
Procedure, shortened: as §2

[12] = tested on: wheat (Triticum aestivum); assay: Test A postemergence, wheat
Procedure, shortened: as §1

[13] = tested on: ragweed (common ragweed, Ambrosia elatior); assay: Test A postemergence, ragweed
Procedure, shortened: as §1

[14] = tested on: ryegrass, Italian (Italian ryegrass, Lolium multiflorum); assay: Test A postemergence, Italian ryegrass
Procedure, shortened: as §1

kochia (Kochia scoparia) [15] = assay: Test A preemergence, kochia; conditions: Preemergence, 0 to 100 scale (0 no effect, 100 complete control)
Procedure, shortened: as §1

[16] = tested on: barnyardgrass (Echinochloa crus-galli); assay: Test B flooded paddy test, barnyardgrass; conditions: 250 g ai/ha, Flood; visual rating after 13 to 15 days; scale 0 to 100, 0 is no effect, 100 is complete control
Procedure, shortened: as §2

[17] = tested on: foxtail, giant (giant foxtail, Setaria faberii); assay: Test A preemergence, giant foxtail; conditions: Preemergence, 0 to 100 scale (0 no effect, 100 complete control)
Procedure, shortened: as §1

[18] = tested on: blackgrass (Alopecurus myosuroides); assay: Test A postemergence, blackgrass
Procedure, shortened: as §1

[19] = 125 g ai/ha, postemergence, 0 to 100 scale, 0 is no effect, 100 is complete control, approximately 10 days
[20] = Postemergence, 31 g ai/ha, 0 to 100 scale (0 no effect, 100 complete control)
[21] = 500 g ai/ha, postemergence, 0 to 100 scale, 0 is no effect, 100 is complete control, approximately 10 days

Row | Compound | Plant response rating, Pigweed ([1]; 125 g ai/ha) | Plant response rating, Rice (rice (Oryza sativa)) | Plant response rating, Barnyardgrass ([2]; 125 g ai/ha) | Plant response rating, Galium [3, 19] | Plant response rating, Ragweed ([4]; 125 g ai/ha) | Plant response rating, Ryegrass, Italian ([5]; 125 g ai/ha) | Plant response rating, Foxtail, Giant [6, 19] | Plant response rating, Kochia (kochia (Kochia scoparia) [7]; [19]) | Plant response rating, Pigweed [8, 19] | Plant response rating, Corn (corn (Zea mays); [19]) | Plant response rating, Barnyardgrass [9, 19] | Plant response rating, Sedge, Umbrella [10] | Plant response rating, Ducksalad [11] | Plant response rating, Wheat [12, 19] | Plant response rating, Ragweed [13, 19] | Plant response rating, Ryegrass, Italian [14, 19] | Plant response rating, Kochia (kochia (Kochia scoparia) [15]; 125 g ai/ha) | Plant response rating, Barnyardgrass [16] | Plant response rating, Foxtail, Giant ([17]; 125 g ai/ha) | Plant response rating, Blackgrass [18, 19] | other results
1 | C#Cc1cccc(Oc2ncc(Cl)cn2)c1OCCCF [Compound 71] | 0 | 0 | 0 | 0 | 0 | 0 | 0 | 0 | 0 | 0 | 0 | 0 | 0 | 0 | 0 | 0 | 0 | 0 | 0 | 0 | Plant response rating, Pigweed ([1]; 31 g ai/ha): 0; Plant response rating, Barnyardgrass ([2]; 31 g ai/ha): 0; Plant response rating, Galium [3, 20]: 0; Plant response rating, Ragweed ([4]; 31 g ai/ha): 0; Plant response rating, Ryegrass, Italian ([5]; 31 g ai/ha): 0; Plant response rating, Foxtail, Giant [6, 20]: 0; Plant response rating, Kochia (kochia (Kochia scoparia) [7]; [20]): 0; Plant response rating, Pigweed [8, 20]: 0; Plant response rating, Corn (corn (Zea mays); [20]): 0; Plant response rating, Barnyardgrass [9, 20]: 0; Plant response rating, Wheat [12, 20]: 0; Plant response rating, Ragweed [13, 20]: 0; Plant response rating, Ryegrass, Italian [14, 20]: 0; Plant response rating, Kochia (kochia (Kochia scoparia) [15]; 31 g ai/ha): 0; Plant response rating, Foxtail, Giant ([17]; 31 g ai/ha): 0; Plant response rating, Blackgrass [18, 20]: 0
2 | N#CCCCOc1c(F)cccc1Oc1ncc(Cl)cn1 [Compound 24] | 90 | 0 | 20 | 20 | 0 | 0 | 0 | 80 | 40 | 0 | 0 | 0 | 30 | 0 | 10 | 0 | 60 | 0 | 30 | 0 | Plant response rating, Pigweed ([1]; 500 g ai/ha): 100; Plant response rating, Barnyardgrass ([2]; 500 g ai/ha): 70; Plant response rating, Galium [3, 21]: 80; Plant response rating, Ragweed ([4]; 500 g ai/ha): 70; Plant response rating, Ryegrass, Italian ([5]; 500 g ai/ha): 20; Plant response rating, Foxtail, Giant [6, 21]: 30; Plant response rating, Kochia (kochia (Kochia scoparia) [7]; [21]): 100; Plant response rating, Pigweed [8, 21]: 70; Plant response rating, Corn (corn (Zea mays); [21]): 10; Plant response rating, Barnyardgrass [9, 21]: 50; Plant response rating, Wheat [12, 21]: 0; Plant response rating, Ragweed [13, 21]: 50; Plant response rating, Ryegrass, Italian [14, 21]: 0; Plant response rating, Kochia (kochia (Kochia scoparia) [15]; 500 g ai/ha): 100; Plant response rating, Foxtail, Giant ([17]; 500 g ai/ha): 100; Plant response rating, Blackgrass [18, 21]: 20
3 | CCC(=O)COc1c(Br)cccc1Oc1ncc(Cl)cn1 [Compound 76] | 80 | 10 | 40 | 20 | 0 | 10 | 40 | 10 | 30 | 10 | 20 | 70 | 90 | 0 | 0 | 0 | 0 | 10 | 70 | 10 | Plant response rating, Pigweed ([1]; 31 g ai/ha): 0; Plant response rating, Barnyardgrass ([2]; 31 g ai/ha): 20; Plant response rating, Galium [3, 20]: 10; Plant response rating, Ragweed ([4]; 31 g ai/ha): 0; Plant response rating, Ryegrass, Italian ([5]; 31 g ai/ha): 0; Plant response rating, Foxtail, Giant [6, 20]: 10; Plant response rating, Kochia (kochia (Kochia scoparia) [7]; [20]): 0; Plant response rating, Pigweed [8, 20]: 10; Plant response rating, Corn (corn (Zea mays); [20]): 0; Plant response rating, Barnyardgrass [9, 20]: 0; Plant response rating, Wheat [12, 20]: 0; Plant response rating, Ragweed [13, 20]: 0; Plant response rating, Ryegrass, Italian [14, 20]: 0; Plant response rating, Kochia (kochia (Kochia scoparia) [15]; 31 g ai/ha): 0; Plant response rating, Foxtail, Giant ([17]; 31 g ai/ha): 10; Plant response rating, Blackgrass [18, 20]: 0
4 | N#Cc1cccc(Oc2ncc(Cl)cn2)c1OCC(=O)C(F)(F)C(F)(F)F [Compound 74] | 80 | 0 | 30 | 30 | 0 | 0 | 40 | 20 | 70 | 20 | 20 | 0 | 0 | 0 | 20 | 0 | 0 | 0 | 70 | 0 | Plant response rating, Pigweed ([1]; 31 g ai/ha): 60; Plant response rating, Barnyardgrass ([2]; 31 g ai/ha): 0; Plant response rating, Galium [3, 20]: 0; Plant response rating, Ragweed ([4]; 31 g ai/ha): 0; Plant response rating, Ryegrass, Italian ([5]; 31 g ai/ha): 0; Plant response rating, Foxtail, Giant [6, 20]: 0; Plant response rating, Kochia (kochia (Kochia scoparia) [7]; [20]): 0; Plant response rating, Pigweed [8, 20]: 20; Plant response rating, Corn (corn (Zea mays); [20]): 0; Plant response rating, Barnyardgrass [9, 20]: 0; Plant response rating, Wheat [12, 20]: 0; Plant response rating, Ragweed [13, 20]: 20; Plant response rating, Ryegrass, Italian [14, 20]: 0; Plant response rating, Kochia (kochia (Kochia scoparia) [15]; 31 g ai/ha): 0; Plant response rating, Foxtail, Giant ([17]; 31 g ai/ha): 0; Plant response rating, Blackgrass [18, 20]: 0
